Source: patent US20250003959A1, “CELL ANALYSIS METHODS, COMPOSITIONS, AND USES” (Institute for Systems Biology, priority 2021, published 2025)

Experiments:
[1] = system: U87VIII single cells; assay: Single-cell barcode chip (SCBC) FA-N3 uptake measurement; type: cell-based, human
Experimental: For SCBC measurements, the as-prepared single cells were resuspended in warm FBS-free media supplemented with 10 mM FA-N3 at 2 M cells/mL. After being incubated at 37° C. for 30 min and washed with FBS-free media 3 times, the collected cell pellet was resuspended in serum-free, biotin-free media. The concentration of the as-prepared single-cell suspension was 2 M cells/mL.
The SCBCs were fabricated according to well-established procedures (Xue et al (2015) J Am Chem Soc 137 (12): 4066-4069). DNA-encoded antibody library (DEAL) was grafted onto the surface through DNA hybridization to enable capture antibody arrays. The FA surface probe was also incorporated onto the surface barcode through the same procedure.
The SCBC devices were operated following previously established protocols (Xue et al (2015) J Am Chem Soc 137 (12): 4066-4069)). Briefly, FA-N3 detection was achieved by a surface-based competitive FRET assay, and protein detection was carried out by a sandwich immunofluorescence assay. The cells were loaded in the SCBC with FA-N3 first. Then each cell was isolated and lysed on each chamber. Upon cell lysing, FA-N3 and other analytes were released from the cell and captured on the surface. Subsequently, the detection cocktail containing BHQ2-N3 and antibodies were added to the chamber, and the fluorescence readout was recorded.
The dendrimer-ssDNA conjugate can be mixed with a cocktail of antibody-ssDNA conjugates to enable multiplex quantitation. As a proof of concept, we quantified the azidopentanoic acid uptake, critical signaling protein levels, and cell proliferation marker (Ki67) in U87VIII single cells. […] We further investigated if the FA-N3 uptake was dictated by the cell volume.

[2] = system: U87VIII cells; assay: FA-N3 uptake experiment at the bulk level, dendrimer/BHQ2-N3 surface detection; type: cell-based, human
Experimental: The 3rd or 4th generation dendrimer was immobilized on the glass slide surface (described above). To generate a working curve of FA-N3, 45 μL of FA-N3 (various concentrations in 1×PBST) was added to each well. The slide was incubated at 37° C. for 2 hours, allowing FA-N3 to react with the DBCO groups on the dendrimer. The FA-N3 solution was then removed, and each well was washed with 1×PBST three times. 45 μL of BHQ2-N3 solution (25 μM in 1×PBST) was added to each well, and the slide/PDMS device was incubated at 37° C. for 1 hour, allowing BHQ2-N3 to react with unoccupied DBCO sites. After removing the BHQ2-N3 solution, and the device was washed with 1×PBST three times. The PDMS slab was then removed, and the slide was washed with 1×PBS, 50% 1×PBS/water, and water. The slide was then air-dried, and the fluorescence intensities were obtained using a Genepix microarray scanner. Experiments were run in quadruplets to get the error bar.
The U87 cells were collected via centrifugation at 500 g for 5 min. The media was removed, and the cells were resuspended in FBS-free DMEM, resulting in a 4 M cells/mL suspension. 250 μL of the cell suspension was dispensed into Eppendorf tubes, and mixed with 250 μL of the FA-N3 solution (various concentrations, in FBS free DMEM). After 30 min incubation in the cell incubator, the cells were centrifuged at 500 g for 5 min and the resulting pellet was washed 3 times to remove any excess FA-N3. Then, 100 μL cell lysis buffer was added to each tube, and kept on ice for 15 min. The tubes were then sonicated and vortexed for 5 min. Finally, the tubes were centrifuged at maximum speed for 10 min. The supernatant was collected and subjected to surface-based FA-N3 detection.
Because of their hydrophobic tails, fatty acids may insert into the cell membrane. This partition is not an active transportation process and may confound the analysis. On the other hand, it was expected that the inserted probe molecules would remain in the membrane fragments upon cell lysis and not be detected by the assay. To assess this potential interference, we incubated the cells with the FA-N3 probe at 4° C. and used our platform to quantify the FA-N3 in the cells. At such a low temperature, the cells would stop the active transportation of the probe, and any observed signal would originate from the nonspecific insertion into the cell membrane. […] To rule out the possibility that the low-temperature treatment dampened the rate of the nonspecific insertion, we performed another experiment where we fixed the cells and then incubated them with the FA-N3 probe at 37° C. Again, the resulted signal was negligible (FIG. 3G).

[3] = system: U87VIII cells
Experimental: (§1) A 96-well plate was seeded with U87 cells (10,000/well), and the cells were allowed to grow overnight. Then the FA-N3 solution was added (100 μL per well, various concentrations) to the cells and incubated for 24 hours. After the incubation, the cell media was removed, and a resazurin solution (10 g/mL, in cell media) was added to the plate and incubated for 2 hours. The fluorescence was read by a plate reader (Biotek, 540 nm excitation/590 nm emission).

[4] = system: U87VIII cells; assay: FA-N3 tolerance experiment (resazurin viability); settings: FIG. 3E
Experimental: as §1

azidopentanoic acid [FA-N3]
intracellular FA-N3 concentration [1]: high μM to low mM
fatty acid concentrations in the chambers ([1]; calculated from the standard curve): high nM to low μM
FA-N3 amount taken up by each cell ([1]; chamber volume 2 nL): low fmol-level
uptake signal after incubation at 4° C. ([2]; U87VIII cells incubated with the probe at 4° C., vs control): indistinguishable from the control
FA-N3 concentration above which uptake signal leveled off ([2]; U87VIII cells, bulk level): above 10 mM
cellular uptake of FA-N3 probe ([2]; U87VIII cells, bulk level, 30 min incubation, varying FA-N3 concentrations): concentration-dependent manner
uptake signal in fixed cells ([2]; fixed U87VIII cells incubated with the probe at 37° C.): negligible
tolerance of the probe by the cells [3]: well-tolerated
concentration well tolerated by cells [4]: up to 20 mM
